The values that follow come from PubChem BioAssay (NCI).

Molecules are shown by their SMILES. “And” between values parts separate entries of the source, which are not always exact repeats. Identical values can stand only once.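 Each compound was tested at five concentrations against cells in 96-well plates for 48 hours. GI50 marks 50% less growth. TGI denotes the concentration required for complete inhibition of growth.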

Common to all, as to assay: NCI anticancer screen, dose series, 48 h
In test [1] the test system is CCRF-CEM leukemia.
The test system of test [2] is HOP-92 NSCLC.
Test [3] deals with MOLT-4 leukemia.
The test system of test [4] is A549 NSCLC.
In test [5] the test system is EKVX NSCLC.
In test [6] the test system is IGROV1 ovarian.
Test [7] relates to SR leukemia.
The subject of test [8] is NCI-H522 lung.
Test [9] deals with U251 CNS.
In test [10] the test system is M14 melanoma.

Take `Cc1ccc(S(=O)(=O)Nc2nc3ccccc3nc2Nc2ccc3nsnc3c2)cc1`: the GI50 in test [1] was 3.32 µM and 2.93 µM; in test [2], 1.89 µM and 0.294 µM; in test [3] it was 4.3 µM and 3.61 µM; in [4] it was 3.68 µM and 3.5 µM; in test [5] it was 4.03 µM and 3.6 µM; in [6] it was 4.16 µM and 2.7 µM. Also, the GI50 in test [7] is 7.87 µM and 4.49 µM; in test [8], 3.59 µM and 1.5 µM; in test [9] it was 3.26 µM and 3.65 µM; in test [10], 4.05 µM and 4.35 µM. The TGI in test [1] is over 100 µM; in test [2], 8.23 µM and 3.73 µM; in test [3], 34.9 µM and > 100 µM; in test [4], over 100 µM; in test [5], over 100 µM; in test [6], > 100 µM and 59.4 µM. The TGI in test [7] was 95.4 µM and > 100 µM; in test [8], 31.1 µM and 4.47 µM; in [9], over 100 µM; in test [10], over 100 µM.

Regarding `COC(=O)[C@@]1(O)C[C@H]2O[C@]1(C)n1c3ccccc3c3c4c(c5c6ccccc6n2c5c31)C(=O)NC4`, the GI50 in [1] was 0.321 µM; in [2] it was 0.188 µM; in test [3], 0.0678 µM; in test [4], 0.24 µM; in test [5], 1.92 µM; in [6], 0.17 µM. The GI50 is 0.0686 µM in [7], 0.0616 µM in test [8], 1.02 µM in [9] and 0.0355 µM in test [10]. The TGI in [1] worked out at 1.64 µM; in [2], 0.88 µM; in test [3], 0.825 µM; in test [4], 2.85 µM; in test [5] it was 7.58 µM; in test [6], 3.28 µM. Also, the TGI was 1.75 µM in test [7], 1.71 µM in test [8], 3.05 µM in test [9] and 1.15 µM in [10].

`O=C(/C=C/c1ccc(C(F)(F)F)cc1)c1ccc(Nc2nc(NCCO)nc(N3CCOCC3)n2)cc1`: the GI50 is 2.41 µM in test [1]; 2.48 µM in [2]; 2.45 µM in [3]; 2.74 µM in test [4]; 2.44 µM in test [5]; 2 µM in test [6]. Moreover, the GI50 in test [7] is 3.1 µM; in test [8], 1.85 µM; in test [9] it was 1.63 µM; in [10], 2.01 µM. For the same compound, the TGI is 6.61 µM in test [1]; 9.2 µM in [2]; 9.05 µM in test [3]; over 100 µM in test [4]; 8.01 µM in test [5]; 4.42 µM in [6]. Further, the TGI in [7] is over 100 µM; in [8] it was 5.04 µM; in test [9] it was 3.38 µM; in test [10], 4.28 µM.

For `CS(=O)(=O)Nc1cc(-c2ccc3ncnc(Nc4ccc5c(cnn5Cc5ccccc5F)c4)c3c2)cnc1Cl`, the GI50 was 0.634 µM in test [1]; 0.131 µM in test [2]; 1.54 µM in test [3]; 2.87 µM in test [4]; 1.69 µM in [5]; 0.575 µM in test [6]. The GI50 in test [7] was 3.86 µM; in test [8] it was 1.18 µM; in [9], 2.11 µM; in test [10] it was 2.66 µM. Besides, the TGI was over 31.2 µM in [1]; 7.48 µM in test [3]; over 53.7 µM in [4]; 9.53 µM in test [5]; 4.31 µM in [6]; over 100 µM in test [7]. The values for the TGI in test [8], in test [9] and in [10] were 8.03 µM, 14.4 µM and 15.6 µM, respectively.

For `C=C1CC[C@@H]2[C@](C)(COC(C)=O)[C@H](OC(C)=O)CC[C@@]2(C)[C@@H]1C/C=C1/C(=O)OC[C@H]1OC(C)=O`, the GI50 in test [1] is 1.12 µM; in [2], 13.2 µM; in test [3], 3.8 µM; in [4] it was 11.9 µM; in [5], 12.9 µM; in test [6], 2.41 µM. Moreover, the GI50 in test [7] was 2.59 µM; in test [8], 1.52 µM; in [9], 6.09 µM; in test [10], 2.22 µM. The TGI in [1] was determined as 5.32 µM; in [2] it was 26.4 µM; in test [3] it was 16.1 µM; in [4], 30.7 µM; in test [5], 25.6 µM; in test [6] it was 6.23 µM. Also, the TGI in [7] is 10.1 µM; in test [8], 3.63 µM; in [9], 19.3 µM; in test [10], 6.48 µM.

Consider `COc1cccc2c(=O)c3c(sc12)c(NCCN(C)C)nc1ccccc13`, for which the GI50 in test [1] was 1.34 µM; in [2], 1.03 µM; in [3], 0.398 µM; in [4] it was 1.22 µM; in [5], 1.51 µM; in test [6] it was 1.19 µM. Besides, the GI50 was 0.612 µM in test [7], 1.36 µM in test [8], 1.29 µM in [9] and 1.56 µM in test [10]. Also, the TGI in [1] was determined as 2.97 µM; in test [2] it was 3.53 µM; in [3], 1.66 µM; in test [4], 2.8 µM; in test [5] it was 2.99 µM; in test [6] it was 2.7 µM. For the same compound, the TGI in test [7] is 2.45 µM; in test [8] it was 3.02 µM; in test [9], 2.74 µM; in test [10], 2.94 µM.
